Data taken from PubChem BioAssay AID248 (DTP/NCI, 2004).
Values joined by “and” are separate entries in the source; they are usually repeats but may differ in a detail not shown here. Identical values can stand only once. Inconclusive results and toxic doses are left out. No stated cut-off is given here; in the data, active means T/C of 150% or more; inactive means T/C below 125%.

Test system: L1210 leukemia ip in BDF1 mice, survival T/C
Experiment: NCI In Vivo Anticancer Drug Screen. Data for tumor model L1210 Leukemia (intraperitoneal) in B6D2F1 (BDF1) mice
Details: endpoint: mean survival time, higher = longer survival
Summary of the method: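 Transplantable tumor model; survival measured in treated vs vehicle control mice. Value = treated/control.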

[1] = dose: 100.0 mg/kg/injection, schedule: Q01DX001 (ip), vehicle: saline with Tween-80
[2] = dose: 100.0 mg/kg/injection, schedule: Q01DX009 (ip), vehicle: saline with Tween-80
[3] = dose: 100.0 mg/kg/injection, schedule: Q04DX002 (ip), vehicle: saline with Tween-80
[4] = dose: 100.0 mg/kg/injection, schedule: Q04DX003 (ip), vehicle: saline with Tween-80
[5] = dose: 200.0 mg/kg/injection, schedule: Q01DX001 (ip), vehicle: saline with Tween-80
[6] = dose: 200.0 mg/kg/injection, schedule: Q01DX009 (ip), vehicle: saline with Tween-80
[7] = dose: 200.0 mg/kg/injection, schedule: Q04DX002 (ip), vehicle: saline with Tween-80
[8] = dose: 200.0 mg/kg/injection, schedule: Q04DX003 (ip), vehicle: saline with Tween-80
[9] = dose: 400.0 mg/kg/injection, schedule: Q01DX001 (ip), vehicle: saline with Tween-80
[10] = dose: 50.0 mg/kg/injection, schedule: Q04DX002 (ip), vehicle: Klucel (hydroxypropylcellulose) (HPC)
[11] = dose: 100.0 mg/kg/injection, schedule: Q04DX002 (ip), vehicle: Klucel (hydroxypropylcellulose) (HPC)
[12] = dose: 200.0 mg/kg/injection, schedule: Q04DX002 (ip), vehicle: Klucel (hydroxypropylcellulose) (HPC)
[13] = dose: 400.0 mg/kg/injection, schedule: Q04DX002 (ip), vehicle: Klucel (hydroxypropylcellulose) (HPC)
[14] = dose: 100.0 mg/kg/injection, schedule: Q04DX003 (ip), vehicle: saline
[15] = dose: 200.0 mg/kg/injection, schedule: Q04DX003 (ip), vehicle: saline
[16] = dose: 400.0 mg/kg/injection, schedule: Q04DX003 (ip), vehicle: saline
[17] = dose: 100.0 mg/kg/injection, schedule: Q01DX001 (ip), vehicle: saline
[18] = dose: 200.0 mg/kg/injection, schedule: Q01DX001 (ip), vehicle: saline
[19] = dose: 400.0 mg/kg/injection, schedule: Q01DX001 (ip), vehicle: saline
[20] = dose: 100.0 mg/kg/injection, schedule: Q01DX001 (ip), vehicle: carboxymethylcellulose (CMC)
[21] = dose: 200.0 mg/kg/injection, schedule: Q01DX001 (ip), vehicle: carboxymethylcellulose (CMC)
[22] = dose: 400.0 mg/kg/injection, schedule: Q01DX001 (ip), vehicle: carboxymethylcellulose (CMC)
[23] = dose: 100.0 mg/kg/injection, schedule: Q01DX009 (ip), vehicle: saline
[24] = dose: 200.0 mg/kg/injection, schedule: Q01DX009 (ip), vehicle: saline
[25] = dose: 50.0 mg/kg/injection, schedule: Q01DX009 (ip), vehicle: saline with Tween-80
[26] = dose: 50.0 mg/kg/injection, schedule: Q01DX001 (ip), vehicle: carboxymethylcellulose (CMC)

Measured: T/C

Cc1ccc(Cl)cc1NC(=O)OCCOc1ccccc1
inactive: dose: 50.0 mg/kg/injection, schedule: Q04DX003 (ip), vehicle: saline with Tween-80 104 % of control | [1] 93 % of control | [2] 95 % of control | [3] 112 % of control and 89 % of control | [4] 96 % of control and 91 % of control | [5] 91 % of control | [6] 103 % of control and 90 % of control | [7] 94 % of control | [8] 102 % of control | [9] 98 % of control | dose: 400.0 mg/kg/injection, schedule: Q01DX009 (ip), vehicle: saline with Tween-80 95 % of control and 103 % of control | dose: 400.0 mg/kg/injection, schedule: Q04DX002 (ip), vehicle: saline with Tween-80 94 % of control and 95 % of control | dose: 400.0 mg/kg/injection, schedule: Q04DX003 (ip), vehicle: saline with Tween-80 88 % of control and 92 % of control

COc1ccc(NC(=O)Nc2ccccc2)cc1
inactive: [10] 105 % of control | [11] 98 % of control and 102 % of control | [12] 99 % of control | [13] 91 % of control

O=c1ccn(CCC(CO)CO)c(=O)[nH]1
inactive: [14] 101 % of control | [15] 106 % of control | [16] 102 % of control

CO/C(=C(/C)C(=O)O)c1c(C)cc(C)c(Br)c1C
inactive: dose: 75.0 mg/kg/injection, schedule: Q01DX009 (ip), vehicle: Klucel (hydroxypropylcellulose) (HPC) 98 % of control | dose: 150.0 mg/kg/injection, schedule: Q01DX009 (ip), vehicle: Klucel (hydroxypropylcellulose) (HPC) 95 % of control | dose: 300.0 mg/kg/injection, schedule: Q01DX009 (ip), vehicle: Klucel (hydroxypropylcellulose) (HPC) 109 % of control

NC(CNC(=O)Oc1ccccc1)C(=O)O (configuration not stated)
inactive: [1] 95 % of control | [5] 103 % of control | [9] 92 % of control

CC(NC(=O)C(CO)NC(=O)c1cnc2ccccc2n1)C(=O)OC(C)(C)C (configuration not stated)
inactive: [17] 102 % of control | [18] 102 % of control | [19] 115 % of control

CCCCS(=O)(=O)F
inactive: [3] 93 % of control

COc1cc(C(=O)CCC(=O)O)c(OC)c(CBr)c1CBr
inactive: dose: 5.0 mg/kg/injection, schedule: Q01DX001 (ip), vehicle: other 101 % of control | dose: 10.0 mg/kg/injection, schedule: Q01DX001 (ip), vehicle: other 110 % of control | dose: 20.0 mg/kg/injection, schedule: Q01DX001 (ip), vehicle: other 101 % of control

Clc1ccc(C2ON2C2CCCCC2)cc1 (configuration not stated)
inactive: [20] 95 % of control | [21] 101 % of control | [22] 101 % of control

CCCC1N(C)CCCN1C
inactive: [4] 114 % of control | [8] 102 % of control

Cc1cc(Cl)c2cc(Cl)cc(Cl)c2n1
inactive: [23] 89 % of control | [14] 91 % of control | [24] 96 % of control | [15] 89 % of control | [16] 94 % of control

CC12C(=O)OC(=O)C1(C)C1OC2C(Br)C1Br (configuration not stated)
inactive: dose: 25.0 mg/kg/injection, schedule: Q01DX009 (ip), vehicle: saline with Tween-80 95 % of control | [25] 97 % of control | [2] 88 % of control

N#Cc1ccccc1CCl
inactive: [26] 103 % of control | [20] 97 % of control | [21] 103 % of control | [22] 107 % of control

C1CCCC(=[N+]2CCCC2)CCC1
inactive: [23] 100 % of control

CCOP(=S)(OCC)N1c2ccccc2Sc2ccccc21
inactive: [4] 92 % of control | [8] 91 % of control

Cc1cc(C)n(/N=C/c2ccc([N+](=O)[O-])o2)c(=O)c1C#N
inactive: [20] 88 % of control | [21] 91 % of control | [22] 88 % of control

NC(CNO)C(=O)O (configuration not stated)
inactive: [23] 101 % of control | [14] 103 % of control | [24] 103 % of control | [15] 97 % of control | dose: 400.0 mg/kg/injection, schedule: Q01DX009 (ip), vehicle: saline 110 % of control | [16] 111 % of control

O=NO.O=N[O-].O=N[O-].[Co+3].[NH-]CC[N-]CCO.[NH-]CC[N-]CCO
inactive: dose: 25.0 mg/kg/injection, schedule: Q01DX009 (ip), vehicle: water 107 % of control | dose: 25.0 mg/kg/injection, schedule: Q04DX003 (ip), vehicle: water 100 % of control | dose: 50.0 mg/kg/injection, schedule: Q01DX009 (ip), vehicle: water 106 % of control and 107 % of control | dose: 50.0 mg/kg/injection, schedule: Q04DX003 (ip), vehicle: water 103 % of control | dose: 100.0 mg/kg/injection, schedule: Q01DX009 (ip), vehicle: water 111 % of control | dose: 100.0 mg/kg/injection, schedule: Q04DX003 (ip), vehicle: water 98 % of control and 101 % of control

CCCCCCCCCCCCC/C=N\NC(=O)CCCC(=O)N/N=C/CCCCCCCCCCCCC
inactive: dose: 50.0 mg/kg/injection, schedule: Q01DX001 (ip), vehicle: other 93 % of control | dose: 100.0 mg/kg/injection, schedule: Q01DX001 (ip), vehicle: other 91 % of control | dose: 200.0 mg/kg/injection, schedule: Q01DX001 (ip), vehicle: other 93 % of control | dose: 400.0 mg/kg/injection, schedule: Q01DX001 (ip), vehicle: other 98 % of control

Cc1ccc(N)cc1NC(=O)c1ccccc1
inactive: [20] 106 % of control | [21] 94 % of control | [22] 108 % of control

NC(=S)NS(=O)(=O)c1ccc(N)cc1
inactive: dose: 89.0 mg/kg/injection, schedule: Q01DX001 (ip), vehicle: saline 97 % of control and 98 % of control | [17] 104 % of control | dose: 133.0 mg/kg/injection, schedule: Q01DX001 (ip), vehicle: saline 98 % of control and 104 % of control | [18] 96 % of control and 92 % of control | dose: 300.0 mg/kg/injection, schedule: Q01DX001 (ip), vehicle: saline 93 % of control and 102 % of control | [19] 98 % of control

CC(C)(C)SCC#CCSC(C)(C)C
inactive: [25] 100 % of control | [2] 118 % of control | [3] 103 % of control | [6] 96 % of control | [7] 100 % of control

COc1cc(N(CCCl)CCCl)ccc1C=Nc1cccc(Cl)c1
inactive: [26] 114 % of control | [20] 111 % of control | [21] 100 % of control | [22] 100 % of control

COc1cc(NC(=O)CC(C)=O)cc2c(C)cc(=O)[nH]c12
inactive: dose: 100.0 mg/kg/injection, schedule: Q01DX001 (ip), vehicle: Klucel (hydroxypropylcellulose) (HPC) 104 % of control | dose: 100.0 mg/kg/injection, schedule: Q04DX003 (ip), vehicle: Klucel (hydroxypropylcellulose) (HPC) 102 % of control | dose: 200.0 mg/kg/injection, schedule: Q01DX001 (ip), vehicle: Klucel (hydroxypropylcellulose) (HPC) 96 % of control | dose: 200.0 mg/kg/injection, schedule: Q04DX003 (ip), vehicle: Klucel (hydroxypropylcellulose) (HPC) 107 % of control | dose: 400.0 mg/kg/injection, schedule: Q01DX001 (ip), vehicle: Klucel (hydroxypropylcellulose) (HPC) 102 % of control | dose: 400.0 mg/kg/injection, schedule: Q04DX003 (ip), vehicle: Klucel (hydroxypropylcellulose) (HPC) 102 % of control

O=C(Nc1ncccn1)Nc1cccc2ccccc12
inactive: dose: 12.5 mg/kg/injection, schedule: Q04DX002 (ip), vehicle: Klucel (hydroxypropylcellulose) (HPC) 102 % of control | dose: 25.0 mg/kg/injection, schedule: Q04DX002 (ip), vehicle: Klucel (hydroxypropylcellulose) (HPC) 97 % of control | [10] 97 % of control | [11] 92 % of control | [12] 92 % of control | [13] 95 % of control
